Here are results for two molecules from patent EP0804445B1, “METALLOCENIC […] DERIVATIVES, METHODS FOR THEIR PREPARATION AND PHARMACEUTICAL COMPOSITIONS CONTAINING SAME” (Modelisation et Mise au Point de Molecules Medicanales - …, priority 1994, dated 1996).

In one test the test system is lignée MCF-7P. The experiment in a line: MTT cytotoxicity test (cell viability). As to conditions: MCF7-P variant cells; 5 days incubation with compound; MTT readout at 550 nm; calculated from points of Figures 1A, 1B and 2 between 5.10^-7 and 10^-5 moles/l; read-out: IC50 (µmole) MCF7-P. Type of test: cell-based, humaines. From the text:
(§1) L'évaluation de la cytotoxicité des isomères "trans" et "cis" du 1-[4-(2-diméthylaminoéthoxy) phényl]-1-(4-hydroxyphényl)-2-ferrocényl-1-butène a fait l'objet de tests sur des lignées de cellules humaines dérivées d'une effusion pleurale d'un adénocarcinome mammaire (lignée MCF-7 ATCC HTB) ainsi que de l'un de ses variants (lignée MCF-7P).
(§2) Ces cellules ont été préalablement cultivées dans du milieu Dulbecco MEM additionné de 10% de sérum de veau foetal et en atmosphère humide (90% d'humidité relative) comprenant 5% de CO2. En phase exponentielle de croissance, ces cellules ont été trypsinées et repiquées dans des plaques de 24 puits de 1 ml à raison de 2.10^5 cellules par puits.
(§3) Après 3 jours d'incubation, les composés à tester ont été ajoutés aux doses appropriées et les plaques ont été mises à incuber pendant 5 jours.
(§4) A l'issue de cette incubation, la viabilité cellulaire des cultures a été déterminée à l'aide du test dit "MTT" consistant à ajouter dans chaque puits 20 µl d'une solution contenant 5 mg de bromure de (diméthyl-4,5-thiazol-2-yl)diphényl-2,5-tétrazolium (MTT) dans 1 ml de tampon PBS, et à laisser incuber les plaques pendant 1 heure à 37°C dans des conditions atmosphériques identiques à celles définies ci-dessus. Le MTT est métabolisé dans les cellules vivantes en un composé bleu insoluble (formazan).
(§5) A l'issue de cette incubation, les puits sont lavés à l'aide de PBS pour éliminer le MTT et les cristaux résiduels de formazan sont repris dans 1 ml de DMSO. La concentration en formazan pour chaque puits est lue par photométrie à une longueur d'onde de 550 nm et comparée à un témoin correspondant à du milieu incubé en présence de MTT mais en l'absence de cellules.

In another test the test system is lignée MCF-7 ATCC HTB. As to the kind of experiment: MTT cytotoxicity test (cell viability). Type of test: cell-based, humaines. As to conditions: MCF7 ATCC cells; 5 days incubation with compound; MTT readout at 550 nm; calculated from points of Figures 1A, 1B and 2 between 5.10^-7 and 10^-5 moles/l; read-out: IC50 (µmole) MCF7 ATCC.
Excerpt: as §1, §2, §3, §4, §5

With `CCC(=C(c1ccc(O)cc1)c1ccc(OCCN(C)C)cc1)[c-]1cccc1.[Fe+2].c1cc[cH-]c1` [Dérivé "cis", 1-[4-(2-diméthylaminoéthoxy)phényl]-1-(4-hydroxyphényl)-2-ferrocényl-1-butène], the IC50 with lignée MCF-7P was 5.6 µM; with lignée MCF-7 ATCC HTB it was 3.4 µM.
For `CCC(=C(c1ccc(O)cc1)c1ccc(OCCN(C)C)cc1)[c-]1cccc1.[Fe+2].c1cc[cH-]c1` [Dérivé "trans", 1-[4-(2-diméthylaminoéthoxy)phényl]-1-(4-hydroxyphényl)-2-ferrocényl-1-butène], in that order: 2 µM and 4.9 µM.
